The record followed here is ChEMBL document CHEMBL1123685, “Synthesis and antiviral activity of various 3'-azido, 3'-amino, 2',3'-unsaturated, and 2',3'-dideoxy analogues of pyrimidine deoxyribonucleosides against retroviruses” (1987).

In one assay the test system is Human immunodeficiency virus 1. Kind of assay: Activity against HTLV-III/LAV[…], was determined in vitro. The assay is classed as functional. Particulars: read-out: ED50 (the source's name).
For `[N-]=[N+]=N[C@H]1C[C@H](n2cc(Br)c(=O)[nH]c2=O)O[C@@H]1CO`, the EC50 turned out to be 2.3 µM.

As for `Cc1cn([C@H]2C[C@H](N=[N+]=[N-])[C@@H](CO)O2)c(=O)[nH]c1=O` [ZIDOVUDINE], the EC50 was determined as 0.23 µM.

Another assay concerns Moloney murine leukemia virus. Kind of assay: Compound was tested against Moloney murine leukemia virus (M-MULV) in 3T3 cells, at a concentration of 10 uM. The format is functional. Particulars: NIH3T3.
`Cc1cn([C@H]2CC[C@@H](CO)O2)c(=O)[nH]c1=O`: 10 µM produced 50% inhibition.

A further assay deals with Moloney murine leukemia virus. Kind of assay: In vitro inhibitory activity against Moloney murine leukemia virus (M-MULV) replication, a mammalian T-lymphotropic retrovirus. The assay is classed as functional. Particulars: read-out: ED50 (the source's name).
Consider `Cc1cn([C@H]2C[C@H](O)[C@@H](CN=[N+]=[N-])O2)c(=O)[nH]c1=O`, for which the EC50 is over 100 µM. On the same count and under the same terms, in the case of `O=c1ccn([C@H]2CC[C@@H](CO)O2)c(=O)[nH]1` it was over 100 µM; in that of `[N-]=[N+]=N[C@H]1C[C@H](n2cc(C(F)(F)F)c(=O)[nH]c2=O)O[C@@H]1CO`, over 100 µM; in that of `[N-]=[N+]=N[C@H]1C[C@H](n2cc(Br)c(=O)[nH]c2=O)O[C@@H]1CO`, 1.5 µM.

With `N[C@H]1C[C@H](n2cc(C(F)(F)F)c(=O)[nH]c2=O)O[C@@H]1CO`, the EC50 was over 100 µM.

As for `Cc1cn([C@H]2C[C@H](N=[N+]=[N-])[C@@H](CN=[N+]=[N-])O2)c(=O)[nH]c1=O`, the EC50 came out at 17 µM. On the same count and under the same terms, then `Cc1cn([C@H]2C[C@H](N=[N+]=[N-])[C@@H](CO)O2)c(=O)nc1N`, with over 100 µM; and `[N-]=[N+]=N[C@H]1C[C@H](n2cc(F)c(N)nc2=O)O[C@@H]1CO`, with over 100 µM.

As for `[N-]=[N+]=N[C@H]1C[C@H](n2ccc(N)nc2=O)O[C@@H]1CO`, the EC50 is 58 µM. Same read-out and setting: in the case of `[N-]=[N+]=N[C@H]1C[C@H](n2cc(I)c(=O)[nH]c2=O)O[C@@H]1CO` it was 3 µM.

Regarding `Cc1cn([C@H]2C[C@H](N)[C@@H](CN)O2)c(=O)[nH]c1=O`, the EC50 is over 100 µM. As for `[N-]=[N+]=N[C@H]1C[C@H](n2cc(F)c(=O)[nH]c2=O)O[C@@H]1CO`, the EC50 is over 100 µM. Still for that read-out and setting: in the case of `O=c1[nH]c(=O)n([C@H]2CC[C@@H](CO)O2)cc1/C=C/Br` it was over 100 µM; in that of `O=c1[nH]c(=O)n([C@H]2CC[C@@H](CO)O2)cc1I`, over 100 µM; in that of `Nc1ccn([C@H]2C=C[C@@H](CO)O2)c(=O)n1`, 3.7 µM. Regarding `O=c1[nH]c(=O)n([C@H]2CC[C@@H](CO)O2)cc1Br`, the EC50 was over 100 µM. Same read-out and setting: in the case of `Cc1cn([C@H]2C[C@H](O)[C@@H](CN)O2)c(=O)[nH]c1=O` it was over 100 µM.

Take `Cc1cn([C@H]2CC[C@@H](CO)O2)c(=O)[nH]c1=O`: the EC50 is over 100 µM. Still for that read-out and setting: then `O=c1ccn([C@H]2C=C[C@@H](CO)O2)c(=O)[nH]1`, with over 100 µM; and `Cc1cn([C@H]2C[C@H](N)[C@@H](CO)O2)c(=O)[nH]c1=O` [3-AMINO- 3-DEOXYTHYMIDINE], with 42 µM. Same read-out and setting: then `[N-]=[N+]=N[C@H]1C[C@H](n2ccc(=O)[nH]c2=O)O[C@@H]1CO` [NAVURIDINE], with 52 µM; and `Cc1cn([C@H]2C=C[C@@H](CO)O2)c(=O)[nH]c1=O` [STAVUDINE], with 2.5 µM. On the same count and under the same terms, then `Nc1ccn([C@H]2CC[C@@H](CO)O2)c(=O)n1` [ZALCITABINE], with 4 µM; and `Cc1cn([C@H]2C[C@H](N=[N+]=[N-])[C@@H](CO)O2)c(=O)[nH]c1=O` [ZIDOVUDINE], with 0.02 µM.
